Where “and” joins values, the source holds several entries; their conditions need not be identical. Equal entries are not always repeated. Where two headings read alike, the source gives them in different places.
Experiments:
gastrocnemius muscle = assay: In vivo muscle CAP (mCAP, EMG integral) after intramuscular injection, gastrocnemius muscle; design: species or system rat; details: 10.8 mg/kg intramuscular
[1] = system: isolated sciatic nerve of the rat; assay: Evoked compound action potential (CAP) of the isolated rat sciatic nerve in a three-chamber bath (ex vivo): inhibition and recovery after washout; details: for IT100 / IT0: 1.41 mg/mL
[2] = target: T1, hNav1.6 sodium channels (SCN8A gene, expressed in CHO cells) (Homo sapiens, UniProt Q9UQD0); assay: Automated patch clamp (PatchXpress 7000A), cloned hNav1.6 in CHO cells, tonic and phasic; assay type: cell-based; details: for inhibition at 2000 µM: CHO; for IC50: FIG. 42
T1 construct: expressed in transfected cells; host or cells: CHO cells
T1 sequence (Q9UQD0 whole entry): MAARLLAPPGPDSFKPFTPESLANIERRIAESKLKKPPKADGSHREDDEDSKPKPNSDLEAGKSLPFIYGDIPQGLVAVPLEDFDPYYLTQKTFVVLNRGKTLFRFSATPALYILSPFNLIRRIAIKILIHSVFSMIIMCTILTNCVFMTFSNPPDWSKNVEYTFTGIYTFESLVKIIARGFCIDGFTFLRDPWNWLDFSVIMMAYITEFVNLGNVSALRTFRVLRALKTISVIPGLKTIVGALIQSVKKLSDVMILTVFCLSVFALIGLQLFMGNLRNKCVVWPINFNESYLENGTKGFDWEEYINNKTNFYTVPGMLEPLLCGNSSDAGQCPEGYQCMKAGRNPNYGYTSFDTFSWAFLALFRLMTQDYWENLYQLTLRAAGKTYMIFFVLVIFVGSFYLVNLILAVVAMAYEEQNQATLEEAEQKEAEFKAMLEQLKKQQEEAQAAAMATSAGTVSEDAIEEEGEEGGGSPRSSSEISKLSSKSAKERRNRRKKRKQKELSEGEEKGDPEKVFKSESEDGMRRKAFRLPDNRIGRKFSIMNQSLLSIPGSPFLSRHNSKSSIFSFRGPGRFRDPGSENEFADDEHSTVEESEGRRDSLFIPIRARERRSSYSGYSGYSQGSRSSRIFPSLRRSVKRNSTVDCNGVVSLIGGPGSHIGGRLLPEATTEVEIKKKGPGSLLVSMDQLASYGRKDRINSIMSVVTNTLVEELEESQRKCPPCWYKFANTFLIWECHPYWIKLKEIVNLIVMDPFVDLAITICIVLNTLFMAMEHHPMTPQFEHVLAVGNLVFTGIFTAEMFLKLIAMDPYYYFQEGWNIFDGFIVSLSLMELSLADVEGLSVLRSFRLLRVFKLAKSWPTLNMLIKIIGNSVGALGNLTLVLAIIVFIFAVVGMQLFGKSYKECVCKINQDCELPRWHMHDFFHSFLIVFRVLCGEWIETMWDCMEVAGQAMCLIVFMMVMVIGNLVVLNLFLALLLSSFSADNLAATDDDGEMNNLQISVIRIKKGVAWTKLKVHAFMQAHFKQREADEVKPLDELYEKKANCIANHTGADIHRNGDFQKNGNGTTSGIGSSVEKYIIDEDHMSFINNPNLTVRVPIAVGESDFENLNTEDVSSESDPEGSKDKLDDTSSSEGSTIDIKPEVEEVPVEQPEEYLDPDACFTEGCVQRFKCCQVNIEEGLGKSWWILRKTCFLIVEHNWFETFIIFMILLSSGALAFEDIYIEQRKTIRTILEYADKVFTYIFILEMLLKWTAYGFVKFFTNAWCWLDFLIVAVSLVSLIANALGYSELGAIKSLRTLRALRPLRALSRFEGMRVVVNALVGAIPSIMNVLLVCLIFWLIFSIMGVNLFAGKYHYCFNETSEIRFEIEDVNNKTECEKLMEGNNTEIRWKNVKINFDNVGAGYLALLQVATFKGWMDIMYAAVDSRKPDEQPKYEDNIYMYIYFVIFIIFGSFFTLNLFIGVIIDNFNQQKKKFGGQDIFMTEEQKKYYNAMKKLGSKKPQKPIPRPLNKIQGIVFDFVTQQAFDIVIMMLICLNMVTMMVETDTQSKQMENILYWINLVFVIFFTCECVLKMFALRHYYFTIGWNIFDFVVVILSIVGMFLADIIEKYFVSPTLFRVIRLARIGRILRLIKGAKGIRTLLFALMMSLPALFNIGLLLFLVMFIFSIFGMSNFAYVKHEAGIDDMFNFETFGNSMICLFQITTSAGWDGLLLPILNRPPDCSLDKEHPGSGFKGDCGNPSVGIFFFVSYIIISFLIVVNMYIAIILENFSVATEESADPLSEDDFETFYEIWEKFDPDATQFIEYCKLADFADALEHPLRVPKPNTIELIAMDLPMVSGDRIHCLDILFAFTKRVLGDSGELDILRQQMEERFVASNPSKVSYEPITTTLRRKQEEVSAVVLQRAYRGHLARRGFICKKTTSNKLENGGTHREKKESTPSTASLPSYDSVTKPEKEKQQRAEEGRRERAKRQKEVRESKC
Description: In this example, the in vitro effects of 2-heptanone on the following ion channels were evaluated at room temperature using the PatchXpress 7000A (Molecular Devices), an automatic parallel patch clamp system:
(§1) 1. Cloned hNav1.2 sodium channels (SCN2A gene, expressed in CHO cells). 2. Cloned hNav1.6 sodium channels (SCN8A gene, expressed in CHO cells).
The effects of 2-heptanone were evaluated at 0.73, 1.46, 2.19, and 2.92 mg/ml with each concentration tested in two cells (n=2). The duration of exposure to each concentration of 2-heptanone was 5 minutes. Tables 2 to 5 show the individual results from each concentration followed by individual concentration-response curves. The positive controls (Table 6) confirm the sensitivity of the test systems to inhibition.
. Br. J. Pharmacol. 164, 719-730). […]

[3] = target: T2, hNav1.2 sodium channels (SCN2A gene, expressed in CHO cells) (Homo sapiens, UniProt Q99250); assay: Automated patch clamp (PatchXpress 7000A), cloned hNav1.2 in CHO cells, tonic and phasic; assay type: cell-based; details: for inhibition at 2000 µM: CHO
T2 construct: expressed in transfected cells; host or cells: CHO cells
T2 sequence (Q99250 whole entry): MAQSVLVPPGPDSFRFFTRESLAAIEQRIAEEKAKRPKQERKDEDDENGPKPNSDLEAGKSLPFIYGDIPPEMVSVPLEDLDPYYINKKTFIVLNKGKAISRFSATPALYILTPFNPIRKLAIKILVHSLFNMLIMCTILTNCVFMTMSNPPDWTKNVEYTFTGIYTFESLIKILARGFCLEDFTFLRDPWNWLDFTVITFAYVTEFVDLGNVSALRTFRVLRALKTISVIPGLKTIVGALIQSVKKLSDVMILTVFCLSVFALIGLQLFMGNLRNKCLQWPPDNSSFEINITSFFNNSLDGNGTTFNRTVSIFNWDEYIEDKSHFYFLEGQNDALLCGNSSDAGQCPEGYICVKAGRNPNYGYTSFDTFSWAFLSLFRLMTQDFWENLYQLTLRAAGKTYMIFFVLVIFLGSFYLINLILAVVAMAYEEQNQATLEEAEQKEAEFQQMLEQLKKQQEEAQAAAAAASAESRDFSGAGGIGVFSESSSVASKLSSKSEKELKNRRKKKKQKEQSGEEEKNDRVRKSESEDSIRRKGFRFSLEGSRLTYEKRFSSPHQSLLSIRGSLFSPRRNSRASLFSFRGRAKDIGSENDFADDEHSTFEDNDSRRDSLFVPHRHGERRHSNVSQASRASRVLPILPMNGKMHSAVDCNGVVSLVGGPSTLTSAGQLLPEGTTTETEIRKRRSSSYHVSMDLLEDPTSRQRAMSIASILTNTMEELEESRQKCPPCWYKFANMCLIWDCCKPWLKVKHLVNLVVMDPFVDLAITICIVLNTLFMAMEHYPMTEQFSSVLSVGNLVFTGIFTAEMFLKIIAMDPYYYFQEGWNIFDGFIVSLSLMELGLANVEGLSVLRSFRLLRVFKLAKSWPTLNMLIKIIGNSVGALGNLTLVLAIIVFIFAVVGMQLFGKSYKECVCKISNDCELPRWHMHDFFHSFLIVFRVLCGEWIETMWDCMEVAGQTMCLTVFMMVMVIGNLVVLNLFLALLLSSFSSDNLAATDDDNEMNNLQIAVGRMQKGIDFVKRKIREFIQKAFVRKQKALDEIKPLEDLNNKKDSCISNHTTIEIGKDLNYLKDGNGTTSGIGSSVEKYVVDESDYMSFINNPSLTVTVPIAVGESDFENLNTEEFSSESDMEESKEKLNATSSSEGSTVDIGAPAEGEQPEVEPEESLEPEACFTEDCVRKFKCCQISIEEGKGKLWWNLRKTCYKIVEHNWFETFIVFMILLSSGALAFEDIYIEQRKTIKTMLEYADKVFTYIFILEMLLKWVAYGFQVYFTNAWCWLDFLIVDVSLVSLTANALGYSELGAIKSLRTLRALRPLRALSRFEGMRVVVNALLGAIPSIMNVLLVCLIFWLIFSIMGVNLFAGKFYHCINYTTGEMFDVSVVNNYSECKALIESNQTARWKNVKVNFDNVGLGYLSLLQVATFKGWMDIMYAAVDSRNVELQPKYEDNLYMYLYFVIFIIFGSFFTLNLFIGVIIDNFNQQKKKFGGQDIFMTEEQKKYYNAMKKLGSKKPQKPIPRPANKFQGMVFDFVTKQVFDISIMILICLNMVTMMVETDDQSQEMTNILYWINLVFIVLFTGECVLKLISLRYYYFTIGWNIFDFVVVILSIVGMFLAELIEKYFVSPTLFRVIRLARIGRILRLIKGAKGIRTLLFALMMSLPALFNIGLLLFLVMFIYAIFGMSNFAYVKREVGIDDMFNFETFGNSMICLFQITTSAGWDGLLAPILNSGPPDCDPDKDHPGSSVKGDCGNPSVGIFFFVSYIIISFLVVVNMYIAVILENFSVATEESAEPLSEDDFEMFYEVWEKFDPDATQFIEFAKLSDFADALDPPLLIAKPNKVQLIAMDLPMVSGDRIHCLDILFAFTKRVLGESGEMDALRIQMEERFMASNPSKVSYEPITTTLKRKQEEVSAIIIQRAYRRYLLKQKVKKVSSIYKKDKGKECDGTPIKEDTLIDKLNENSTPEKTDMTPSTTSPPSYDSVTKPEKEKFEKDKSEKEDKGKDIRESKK
From the text: as §1

[4] = 2 mM (0.46 mg/mL), single cells

CCN(CC)CC(=O)Nc1c(C)cccc1C [lidocaine, 2-(diethylamino)-N-(2,6-dimethylphenyl)-acetamide, reference compound]
IT50 of the integral of mCAPs (gastrocnemius muscle): 19.30 ± 1.92 s | recovery of mCAP, % of initial values after 3 h (gastrocnemius muscle): 70.3±8.67% and 70.3% | IT100 / IT0 [1]: 320 ± 14.96 s | IT100 / IT0 ([1]; listed as Lidocaine): 320.3 ± 14.96 s | IT0 ([1]; 10 mM, stirred saline, individual nerves): 90 s and 150 s | IT50 (time to inhibit CAP amplitude to 50% of control) ([1]; 10 mg/mL): 12.0 ± 0.95 s | recovery of the CAP after washout, % of control ([1]; after 1.41 mg/mL): 95% | IC50 (concentration required to inhibit the CAP to 50% of control) ([1]; estimated from time-response curves, GraphPad Prism 5): 337 ± 1 µg/mL | Individual Data Points (% Inhibition), Nav1.6 (positive control) [2, 4]: 59.3% | inhibition at 2000 µM ([2]; read-out: Individual Data Points (% Inhibition), Nav1.6 (positive control), 2 mM (0.46 mg/mL), single cells): 63.8% | inhibition at 2000 µM ([2]; read-out: Mean % Inhibition of Nav1.6 (positive control), 2 mM (0.46 mg/mL)): 61.5% | hNav1.6 IC50, phasic ([2]; Example 18, mean ± SEM): 70 ± 10 µg/mL | hNav1.6 IC50, tonic ([2]; Example 18, mean ± SEM): 290 ± 10 µg/mL | IC50 ([2]; read-out: Nav1.6 IC50, phasic): 260 µM | IC50 ([2]; read-out: Nav1.6 IC50, tonic): 1100 µM | Individual Data Points (% Inhibition), Nav1.2 (positive control) [3, 4]: 74.9% | inhibition at 2000 µM ([3]; read-out: Individual Data Points (% Inhibition), Nav1.2 (positive control), 2 mM (0.46 mg/mL), single cells): 76.1% | inhibition at 2000 µM ([3]; read-out: Mean % Inhibition of Nav1.2 (positive control), 2 mM (0.46 mg/mL)): 75.5%

Source: US20140107219A1, “LOCAL ANAESTHETIC” (VITA (EUROPE) LIMITED, priority 2011, published 2014)
